Assay results published in paper PMC7723751 (Bioorganic chemistry, 2020).

Key:
human FAAH enzyme = biological target: T1, human FAAH enzyme (Homo sapiens, UniProt O00519); test: Human FAAH enzyme inhibition assay; type: biochemical
T1 sequence (O00519 1-579): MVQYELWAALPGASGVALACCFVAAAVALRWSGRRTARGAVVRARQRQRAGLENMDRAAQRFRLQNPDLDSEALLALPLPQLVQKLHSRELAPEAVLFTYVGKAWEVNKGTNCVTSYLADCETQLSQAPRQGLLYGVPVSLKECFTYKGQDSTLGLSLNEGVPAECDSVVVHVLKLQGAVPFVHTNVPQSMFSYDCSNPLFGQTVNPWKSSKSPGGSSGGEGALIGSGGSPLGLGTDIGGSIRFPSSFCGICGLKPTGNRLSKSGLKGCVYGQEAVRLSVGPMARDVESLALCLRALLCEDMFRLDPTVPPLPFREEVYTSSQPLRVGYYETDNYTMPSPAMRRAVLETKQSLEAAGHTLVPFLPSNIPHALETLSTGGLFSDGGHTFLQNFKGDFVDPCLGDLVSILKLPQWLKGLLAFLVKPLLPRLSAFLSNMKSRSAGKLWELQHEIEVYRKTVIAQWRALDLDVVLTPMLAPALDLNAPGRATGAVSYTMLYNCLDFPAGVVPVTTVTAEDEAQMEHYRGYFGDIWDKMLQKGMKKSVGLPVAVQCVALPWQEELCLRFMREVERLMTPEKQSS

Human sEH = biological target: T2, Human sEH (Homo sapiens, UniProt P34913); test: Human sEH inhibition assay; type: biochemical; conditions: sEH IC50, human sEH 1 nM, CMNPC 5 μM, pH 7.0, 30 °C
T2 sequence (P34913 1-555): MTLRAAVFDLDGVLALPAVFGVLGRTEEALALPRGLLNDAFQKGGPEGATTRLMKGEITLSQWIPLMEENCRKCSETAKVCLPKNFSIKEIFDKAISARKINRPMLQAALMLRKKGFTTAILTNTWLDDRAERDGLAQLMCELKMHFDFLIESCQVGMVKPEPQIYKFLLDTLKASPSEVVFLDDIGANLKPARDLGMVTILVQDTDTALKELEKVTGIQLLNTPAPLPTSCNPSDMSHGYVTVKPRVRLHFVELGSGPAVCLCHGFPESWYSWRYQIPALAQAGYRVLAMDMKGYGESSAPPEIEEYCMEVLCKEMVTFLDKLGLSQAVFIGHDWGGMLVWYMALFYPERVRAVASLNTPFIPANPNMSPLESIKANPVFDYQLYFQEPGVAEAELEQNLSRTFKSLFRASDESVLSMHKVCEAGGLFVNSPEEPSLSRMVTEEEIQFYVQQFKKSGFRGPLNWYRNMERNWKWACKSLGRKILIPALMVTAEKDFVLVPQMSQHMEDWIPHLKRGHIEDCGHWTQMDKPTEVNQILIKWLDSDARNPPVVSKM

SMILES | IC50 (human FAAH enzyme) [nM] | IC50 (Human sEH) [nM]
COc1ccc(S(=O)(=O)N2CCC(C(=O)Nc3ccc(-c4nc5ccccc5s4)cc3)CC2)c(OC)c1 [Compound 4-23, N-(4-(benzo[d]thiazol-2-yl)phenyl)-1-((2,4-dimethoxyphenyl)sulfonyl)piperidine-4-carboxamide] | 36.2 | 180
O=C(Nc1ccc(-c2nc3ccccc3s2)cc1)C1CCN(S(=O)(=O)c2cccc(Br)c2)CC1 [Compound 4-11, N-(4-(benzo[d]thiazol-2-yl)phenyl)-1-((3-bromophenyl)sulfonyl)piperidine-4-carboxamide] | 51.6 | 1100
O=C(Nc1ccc(-c2nc3ccccc3s2)cc1)C1CCN(S(=O)(=O)c2cc(Br)c(Cl)s2)CC1 [Compound 4-2, N-(4-(benzo[d]thiazol-2-yl)phenyl)-1-((4-bromo-5-chlorothiophen-2-yl)sulfonyl)piperidine-4-carboxamide] | 2700 | 5900
O=C(Nc1ccc(-c2nc3ccccc3s2)cc1)C1CCN(S(=O)(=O)c2ccc(F)cc2)CC1 [Compound 4-14, N-(4-(benzo[d]thiazol-2-yl)phenyl)-1-((4-fluorophenyl)sulfonyl)piperidine-4-carboxamide] | 77 | 1300
Cc1cc(C)cc(S(=O)(=O)N2CCC(C(=O)Nc3ccc(-c4nc5ccccc5s4)cc3)CC2)c1 [Compound 4-25, N-(4-(benzo[d]thiazol-2-yl)phenyl)-1-((3,5-dimethylphenyl)sulfonyl)piperidine-4-carboxamide] | > 10000 | 3600
O=C(Nc1ccc(-c2nc3ccccc3s2)cc1)C1CCN(S(=O)(=O)c2ccccc2F)CC1 [Compound 4-4, N-(4-(benzo[d]thiazol-2-yl)phenyl)-1-((2-fluorophenyl)sulfonyl)piperidine-4-carboxamide] | 1.3 | 150
O=C(Nc1ccc(-c2nc3ccccc3s2)cc1)C1CCN(S(=O)(=O)c2ccccc2Br)CC1 [Compound 4-6, N-(4-(benzo[d]thiazol-2-yl)phenyl)-1-((2-bromophenyl)sulfonyl)piperidine-4-carboxamide] | 6.1 | 24
O=C(Nc1ccc(-c2nc3ccccc3s2)cc1)C1CCN(S(=O)(=O)c2cc(F)cc(F)c2)CC1 [Compound 4-24, N-(4-(benzo[d]thiazol-2-yl)phenyl)-1-((3,5-difluorophenyl)sulfonyl)piperidine-4-carboxamide] | > 10000 | 1100
Cc1ccc(S(=O)(=O)N2CCC(C(=O)Nc3ccc(-c4nc5ccccc5s4)cc3)CC2)cc1 [Compound 4-17, N-(4-(benzo[d]thiazol-2-yl)phenyl)-1-tosylpiperidine-4-carboxamide] | > 10000 | 370
COc1cccc(S(=O)(=O)N2CCC(C(=O)Nc3ccc(-c4nc5ccccc5s4)cc3)CC2)c1 [Compound 4-13, N-(4-(benzo[d]thiazol-2-yl)phenyl)-1-((3-methoxyphenyl)sulfonyl)piperidine-4-carboxamide] | 14.6 | 620
Cc1cc(C)c(S(=O)(=O)N2CCC(C(=O)Nc3ccc(-c4nc5ccccc5s4)cc3)CC2)c(C)c1 [Compound 4-28, N-(4-(benzo[d]thiazol-2-yl)phenyl)-1-(mesitylsulfonyl)piperidine-4-carboxamide] | 84 | 790
O=C(Nc1ccc(-c2nc3ccccc3s2)cc1)C1CCN(S(=O)(=O)c2cccs2)CC1 [Compound 4-1, N-(4-(benzo[d]thiazol-2-yl)phenyl)-1-(thiophen-2-ylsulfonyl)piperidine-4-carboxamide] | 16 | 420
O=C(Nc1ccc(-c2nc3ccccc3s2)cc1)C1CCN(S(=O)(=O)c2ccc(Cl)cc2)CC1 [Compound 4-15, N-(4-(benzo[d]thiazol-2-yl)phenyl)-1-((4-chlorophenyl)sulfonyl)piperidine-4-carboxamide] | 260 | 710
Cc1ccc(S(=O)(=O)N2CCC(C(=O)Nc3ccc(-c4nc5ccccc5s4)cc3)CC2)c(C)c1 [Compound 4-22, N-(4-(benzo[d]thiazol-2-yl)phenyl)-1-((2,4-dimethylphenyl)sulfonyl)piperidine-4-carboxamide] | 5.5 | 29.2
COc1ccccc1S(=O)(=O)N1CCC(C(=O)Nc2ccc(-c3nc4ccccc4s3)cc2)CC1 [Compound 4-8, N-(4-(benzo[d]thiazol-2-yl)phenyl)-1-((2-methoxyphenyl)sulfonyl)piperidine-4-carboxamide] | 80 | 26
O=C(Nc1ccc(-c2nc3ccccc3s2)cc1)C1CCN(S(=O)(=O)c2cccc(Cl)c2)CC1 [Compound 4-10, N-(4-(benzo[d]thiazol-2-yl)phenyl)-1-((3-chlorophenyl)sulfonyl)piperidine-4-carboxamide] | 7.2 | 2400
O=C(Nc1ccc(-c2nc3ccccc3s2)cc1)C1CCN(S(=O)(=O)c2c(Cl)cc(Cl)cc2Cl)CC1 [Compound 4-27, N-(4-(benzo[d]thiazol-2-yl)phenyl)-1-((2,4,6-trichlorophenyl)sulfonyl)piperidine-4-carboxamide] | 270 | 1300
O=C(Nc1ccc(-c2nc3ccccc3s2)cc1)C1CCN(S(=O)(=O)c2c(F)cc(F)cc2F)CC1 [Compound 4-26, N-(4-(benzo[d]thiazol-2-yl)phenyl)-1-((2,4,6-trifluorophenyl)sulfonyl)piperidine-4-carboxamide] | 250 | 6600
Cc1ccccc1S(=O)(=O)N1CCC(C(=O)Nc2ccc(-c3nc4ccccc4s3)cc2)CC1 [Compound 4-7, N-(4-(benzo[d]thiazol-2-yl)phenyl)-1-(o-tolylsulfonyl)piperidine-4-carboxamide] | 9.6 | 35
O=C(Nc1ccc(-c2nc3ccccc3s2)cc1)C1CCN(S(=O)(=O)c2ccc(F)cc2F)CC1 [Compound 4-19, N-(4-(benzo[d]thiazol-2-yl)phenyl)-1-((2,4-difluorophenyl)sulfonyl)piperidine-4-carboxamide] | 11.4 | 195
O=C(Nc1ccc(-c2nc3ccccc3s2)cc1)C1CCN(S(=O)(=O)c2ccc(Br)cc2Br)CC1 [Compound 4-21, N-(4-(benzo[d]thiazol-2-yl)phenyl)-1-((2,4-dibromophenyl)sulfonyl)piperidine-4-carboxamide] | 10 | 36
O=C(Nc1ccc(-c2nc3ccccc3s2)cc1)C1CCN(S(=O)(=O)c2ccc(Br)cc2)CC1 [Compound 4-16, N-(4-(benzo[d]thiazol-2-yl)phenyl)-1-((4-bromophenyl)sulfonyl)piperidine-4-carboxamide] | 185 | 580
Cc1cccc(S(=O)(=O)N2CCC(C(=O)Nc3ccc(-c4nc5ccccc5s4)cc3)CC2)c1 [Compound 4-12, N-(4-(benzo[d]thiazol-2-yl)phenyl)-1-(m-tolylsulfonyl)piperidine-4-carboxamide] | 7 | 940
CC(C)c1cc(C(C)C)c(S(=O)(=O)N2CCC(C(=O)Nc3ccc(-c4nc5ccccc5s4)cc3)CC2)c(C(C)C)c1 [Compound 4-29, N-(4-(benzo[d]thiazol-2-yl)phenyl)-1-((2,4,6-triisopropylphenyl)sulfonyl)piperidine-4-carboxamide] | 2230 | 840
O=C(Nc1ccc(-c2nc3ccccc3s2)cc1)C1CCN(S(=O)(=O)c2c(F)c(F)c(F)c(F)c2F)CC1 [Compound 4-30, N-(4-(benzo[d]thiazol-2-yl)phenyl)-1-((perfluorophenyl)sulfonyl)piperidine-4-carboxamide] | > 10000 | 2670
COc1ccc(S(=O)(=O)N2CCC(C(=O)Nc3ccc(-c4nc5ccccc5s4)cc3)CC2)cc1 [Compound 4-18, N-(4-(benzo[d]thiazol-2-yl)phenyl)-1-((4-methoxyphenyl)sulfonyl)piperidine-4-carboxamide] | > 10000 | 84
O=C(Nc1ccc(-c2nc3ccccc3s2)cc1)C1CCN(S(=O)(=O)c2ccccc2)CC1 [Compound 4-3, N-(4-(benzo[d]thiazol-2-yl)phenyl)-1-(phenylsulfonyl)piperidine-4-carboxamide] | 8.6 | 1100
O=C(Nc1ccc(-c2nc3ccccc3s2)cc1)C1CCN(S(=O)(=O)c2cccc(F)c2)CC1 [Compound 4-9, N-(4-(benzo[d]thiazol-2-yl)phenyl)-1-((3-fluorophenyl)sulfonyl)piperidine-4-carboxamide] | 13.4 | 1700
